Data from ChEMBL document CHEMBL5365447, “Pronucleotides of 2',3'-Dideoxy-2',3'-Didehydrothymidine as Potent Anti-HIV Compounds” (J Med Chem, 2023).
pEC50: −log10 of the molar value. Active and inactive are the calls of the source. The rule behind the calls is not given here.

Experiments:
[1] = target: T1, DNA polymerase subunit gamma-1 (Homo sapiens) (UniProt P54098); experiment: Substrate activity at human DNA polymerase gamma measured after 4 hrs by electrophoresis based primer extension assay
T1 sequence (whole entry): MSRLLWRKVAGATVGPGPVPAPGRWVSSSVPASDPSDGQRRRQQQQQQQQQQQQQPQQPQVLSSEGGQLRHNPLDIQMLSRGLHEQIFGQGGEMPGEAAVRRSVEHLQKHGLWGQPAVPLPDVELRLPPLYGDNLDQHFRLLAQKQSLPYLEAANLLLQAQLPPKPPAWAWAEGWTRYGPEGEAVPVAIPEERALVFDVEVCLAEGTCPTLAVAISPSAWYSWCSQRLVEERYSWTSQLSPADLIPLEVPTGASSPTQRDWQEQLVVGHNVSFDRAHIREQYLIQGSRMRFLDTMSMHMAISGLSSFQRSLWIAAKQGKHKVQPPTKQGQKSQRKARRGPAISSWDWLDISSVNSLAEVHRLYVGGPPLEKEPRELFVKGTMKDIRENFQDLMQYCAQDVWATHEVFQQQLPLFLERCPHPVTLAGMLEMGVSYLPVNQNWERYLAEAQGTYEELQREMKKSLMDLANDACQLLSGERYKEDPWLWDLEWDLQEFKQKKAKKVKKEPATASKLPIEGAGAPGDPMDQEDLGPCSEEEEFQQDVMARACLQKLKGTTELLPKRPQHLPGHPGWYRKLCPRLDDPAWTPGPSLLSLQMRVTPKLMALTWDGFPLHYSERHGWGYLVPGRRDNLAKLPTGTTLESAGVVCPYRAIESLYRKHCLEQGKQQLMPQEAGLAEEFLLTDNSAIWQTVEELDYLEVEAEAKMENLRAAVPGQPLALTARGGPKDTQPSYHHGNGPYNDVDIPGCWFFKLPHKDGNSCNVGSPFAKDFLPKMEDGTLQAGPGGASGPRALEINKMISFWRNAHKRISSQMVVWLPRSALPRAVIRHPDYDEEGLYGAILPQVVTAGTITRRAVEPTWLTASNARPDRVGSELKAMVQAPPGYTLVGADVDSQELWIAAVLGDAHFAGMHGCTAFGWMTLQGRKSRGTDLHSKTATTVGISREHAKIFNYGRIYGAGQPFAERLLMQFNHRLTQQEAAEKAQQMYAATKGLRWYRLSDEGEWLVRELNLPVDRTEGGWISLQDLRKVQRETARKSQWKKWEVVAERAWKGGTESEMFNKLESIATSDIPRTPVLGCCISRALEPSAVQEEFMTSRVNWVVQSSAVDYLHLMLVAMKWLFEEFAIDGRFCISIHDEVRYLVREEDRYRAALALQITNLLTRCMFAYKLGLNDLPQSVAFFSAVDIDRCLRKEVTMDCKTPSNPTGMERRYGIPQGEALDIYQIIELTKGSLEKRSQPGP

[2] = Cytotoxicity against human CEM cells assessed as reduction in cell viability incubated for 4 to 5 days by light microscopic analysis; format: toxicity, cell-based; conditions: CEM cells (CCRF-CEM), time 4-5 day
[3] = system: Human immunodeficiency virus; experiment: Substrate activity at HIV reverse transcriptase measured after 4 hrs by electrophoresis based primer extension assay
[4] = Prodrug conversion in human CEM/0 cell extract assessed as metabolite formation by measuring half life by HPLC analysis; format: ADME; conditions: ccrf-cem
[5] = Prodrug conversion in pH 7.3 phosphate buffer assessed as ((2S,5R)-5-(5-methyl-2,4-dioxo-3,4-dihydropyrimidin-1(2H)-yl)-2,5-dihydrofuran-2-yl)methyl dihydrogen phosphate formation by measuring half life in presence of pig liver esterase by HPLC analysis; format: ADME
[6] = system: Human immunodeficiency virus 1; experiment: Antiviral activity against HIV-1 HE infected in wild-type human CEM/0 cells assessed as inhibition of virus-induced cytopathic effect incubated for 4 to 5 days by light microscopic analysis; format: functional, organism-based; conditions: Human immunodeficiency virus 1, HE, CCRF-CEM
[7] = Prodrug conversion in human CEM/0 cell extract assessed as ((2S,5R)-5-(5-methyl-2,4-dioxo-3,4-dihydropyrimidin-1(2H)-yl)-2,5-dihydrofuran-2-yl)methyl tri-hydrogen diphosphate formation by HPLC analysis; format: ADME; conditions: ccrf-cem
[8] = Chemical stability of the compound in phosphate buffer saline assessed as half life at pH 7.3 by HPLC analysis; format: physicochemical; conditions: phosphate buffered saline
[9] = target: T2, DNA polymerase alpha catalytic subunit (Homo sapiens) (UniProt P09884); experiment: Substrate activity at human DNA polymerase alpha measured after 4 hrs by electrophoresis based primer extension assay
T2 sequence (whole entry): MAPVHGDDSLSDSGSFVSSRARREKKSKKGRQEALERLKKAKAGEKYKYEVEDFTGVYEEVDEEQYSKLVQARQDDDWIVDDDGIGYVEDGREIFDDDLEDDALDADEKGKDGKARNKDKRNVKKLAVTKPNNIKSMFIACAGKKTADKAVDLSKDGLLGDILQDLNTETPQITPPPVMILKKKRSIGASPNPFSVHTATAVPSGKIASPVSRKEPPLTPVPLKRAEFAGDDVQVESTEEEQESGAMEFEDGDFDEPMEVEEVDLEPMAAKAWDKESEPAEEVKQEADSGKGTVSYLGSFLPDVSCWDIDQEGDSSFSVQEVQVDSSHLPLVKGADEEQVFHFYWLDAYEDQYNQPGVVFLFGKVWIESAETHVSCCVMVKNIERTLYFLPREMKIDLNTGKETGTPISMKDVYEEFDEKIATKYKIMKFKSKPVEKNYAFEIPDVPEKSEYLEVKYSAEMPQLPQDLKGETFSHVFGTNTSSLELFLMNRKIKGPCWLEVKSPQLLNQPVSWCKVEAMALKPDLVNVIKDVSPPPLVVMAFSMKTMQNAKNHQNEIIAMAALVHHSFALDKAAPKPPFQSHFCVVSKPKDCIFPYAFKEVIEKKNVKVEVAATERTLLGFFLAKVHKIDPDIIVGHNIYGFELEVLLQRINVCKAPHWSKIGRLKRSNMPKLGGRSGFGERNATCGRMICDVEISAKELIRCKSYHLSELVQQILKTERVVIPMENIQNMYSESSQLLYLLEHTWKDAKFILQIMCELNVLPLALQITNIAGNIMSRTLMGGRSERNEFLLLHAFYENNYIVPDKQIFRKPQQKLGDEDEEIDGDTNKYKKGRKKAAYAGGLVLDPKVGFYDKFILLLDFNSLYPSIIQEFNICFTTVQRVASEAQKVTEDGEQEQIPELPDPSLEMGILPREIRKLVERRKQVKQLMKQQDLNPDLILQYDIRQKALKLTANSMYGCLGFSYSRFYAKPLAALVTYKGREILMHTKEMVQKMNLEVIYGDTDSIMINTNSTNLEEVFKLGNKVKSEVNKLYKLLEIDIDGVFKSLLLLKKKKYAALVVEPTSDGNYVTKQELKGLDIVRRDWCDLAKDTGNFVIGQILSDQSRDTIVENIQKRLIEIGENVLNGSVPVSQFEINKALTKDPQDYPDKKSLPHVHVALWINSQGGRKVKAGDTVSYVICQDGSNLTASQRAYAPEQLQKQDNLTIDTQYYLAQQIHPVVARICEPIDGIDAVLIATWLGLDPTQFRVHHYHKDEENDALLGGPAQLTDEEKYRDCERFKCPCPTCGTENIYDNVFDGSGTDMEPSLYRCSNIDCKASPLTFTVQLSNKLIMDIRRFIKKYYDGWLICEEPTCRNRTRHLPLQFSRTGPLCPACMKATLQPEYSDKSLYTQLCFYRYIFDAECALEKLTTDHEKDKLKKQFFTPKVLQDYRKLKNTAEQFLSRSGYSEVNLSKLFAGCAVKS

[10] = Prodrug conversion in human CEM/0 cell extract assessed as ((2S,5R)-5-(5-methyl-2,4-dioxo-3,4-dihydropyrimidin-1(2H)-yl)-2,5-dihydrofuran-2-yl)methyl dihydrogen phosphate formation by HPLC analysis; format: ADME; conditions: ccrf-cem
[11] = system: Human immunodeficiency virus 2; experiment: Antiviral activity against HIV-2 ROD infected in thymidine kinase-deficient human CEM cells assessed as inhibition of virus-induced cytopathic effect incubated for 4 to 5 days by light microscopic analysis; format: functional, organism-based; conditions: Human immunodeficiency virus 2, ROD, CCRF-CEM
[12] = system: Human immunodeficiency virus 2; experiment: Antiviral activity against HIV-2 ROD infected in wild-type human CEM/0 cells assessed as inhibition of virus-induced cytopathic effect incubated for 4 to 5 days by light microscopic analysis; format: functional, organism-based; conditions: Human immunodeficiency virus 2, ROD, CCRF-CEM
[13] = Selectivity index, ratio of CC50 for human CEM cells to EC50 for HIV-2 ROD infected in thymidine kinase-deficient human CEM cells; format: toxicity; conditions: read-out: Ratio CC50/EC50
[14] = target: DNA polymerase beta (Homo sapiens) (UniProt P06746); experiment: Substrate activity at human DNA polymerase beta measured after 4 hrs by electrophoresis based primer extension assay
[15] = Retention time of the compound by HPLC analysis; format: physicochemical
[16] = Prodrug conversion in pH 7.3 phosphate buffer assessed as ((2S,5R)-5-(5-methyl-2,4-dioxo-3,4-dihydropyrimidin-1(2H)-yl)-2,5-dihydrofuran-2-yl)methyl tri-hydrogen diphosphate formation by measuring half life in presence of pig liver esterase by HPLC analysis; format: ADME
[17] = Chemical stability of the compound in phosphate buffer assessed as half life at pH 7.3 by HPLC analysis; format: physicochemical
[18] = Prodrug conversion in human CEM/0 cell extract assessed as ((2S,5R)-5-(5-methyl-2,4-dioxo-3,4-dihydropyrimidin-1(2H)-yl)-2,5-dihydrofuran-2-yl)methyl tetrahydrogen triphosphate formation by HPLC analysis; format: ADME; conditions: ccrf-cem
[19] = system: Human immunodeficiency virus 1; experiment: Potency index, ratio of 3'-deoxy-2',3'-dehydrothymidine EC50 to compound EC50 for antiviral activity against HIV-1 HE infected in wild-type human CEM/0 cells; format: functional
[20] = system: Human immunodeficiency virus 2; experiment: Potency index, ratio of 3'-deoxy-2',3'-dehydrothymidine EC50 to compound EC50 for antiviral activity against HIV-2 ROD infected in thymidine kinase-deficient human CEM[…] cells; format: functional
[21] = system: Human immunodeficiency virus 2; experiment: Potency index, ratio of 3'-deoxy-2',3'-dehydrothymidine EC50 to compound EC50 for antiviral activity against HIV-2 ROD infected in wild-type human CEM/0 cells; format: functional

SMILES	Activity [1]	Activity [3]	pEC50 [6]	Drug metabolism [7]	half-life [8]	Activity [9]	Drug metabolism [10]	pEC50 [11]	pEC50 [12]	Activity [14]	Retention_time [15]	half-life [17]	CC50 [2]	t1/2 [4]	t1/2 [5]	selectivity ratio [13]	t1/2 [16]	Drug metabolism [18]	Ratio EC50 [19]	Ratio EC50 [20]	also measured
CCCCCCCCCCCCCCCCCCP(=O)(OCCCC)OP(=O)(O)OP(=O)(O)OC[C@@H]1C=C[C@H](n2cc(C)c(=O)[nH]c2=O)O1.N.N (stereo partly specified)	inactive	inactive	–	Metabolite_Detected	–	inactive	–	–	–	inactive	15.9 min	> 70.8 days	33000 nM	> 15 h	–	–	> 150 h	Metabolite_Notdetected	–	–	–
CCCCCCCCCCCCCCCCCCOP(=O)(OCC(CC)CCCC)OP(=O)(O)OP(=O)(O)OC[C@@H]1C=C[C@H](n2cc(C)c(=O)[nH]c2=O)O1.N.N (stereo partly specified)	inactive	Active	7.12	–	–	inactive	–	8.30	7.44	inactive	17.3 min	> 83.3 days	34000 nM	–	–	6800	–	–	4	10000	Drug metabolism [16]: Metabolite_Notdetected; Drug metabolism [4]: Metabolite_Notdetected; Ratio EC50 [21]: 4
CCCCCCCCCCCCCCCCCCP(=O)(OCCCC)OP(=O)(O)OC[C@@H]1C=C[C@H](n2cc(C)c(=O)[nH]c2=O)O1.N (stereo partly specified)	inactive	Active	7.51	Metabolite_Notdetected	> 125 days	inactive	Metabolite_Detected	8.70	7.80	inactive	18.5 min	–	42600 nM	> 40 h	> 150 h	20300	–	–	–	–	–

Now from value to molecule, other results behind:

Activity [1]	Activity [3]	pEC50 [6]	Drug metabolism [7]	half-life [8]	Activity [9]	Drug metabolism [10]	pEC50 [11]	pEC50 [12]	Activity [14]	Retention_time [15]	half-life [17]	SMILES	CC50 [2]	t1/2 [4]	t1/2 [5]	selectivity ratio [13]	t1/2 [16]	Drug metabolism [18]	Ratio EC50 [19]	Ratio EC50 [20]	also measured
inactive	inactive	7.48	Metabolite_Notdetected	> 41.7 days	inactive	Metabolite_Detected	9.00	8.40	inactive	18.9 min	–	CCCCCCCCCCCCCCCCCCOP(=O)(OCCCC)OP(=O)(O)OC[C@@H]1C=C[C@H](n2cc(C)c(=O)[nH]c2=O)O1.N (stereo partly specified)	41300 nM	> 18 h	> 150 h	37500	–	–	–	–	–
inactive	Active	–	Metabolite_Detected	–	inactive	–	–	–	inactive	16.2 min	41.2 days	CCCCCCCCCCCCCCCCCCOP(=O)(OCCCC)OP(=O)(O)OP(=O)(O)OC[C@@H]1C=C[C@H](n2cc(C)c(=O)[nH]c2=O)O1.N.N (stereo partly specified)	30000 nM	> 10 h	–	938	> 150 h	Metabolite_Notdetected	4	10000	Ratio EC50 [21]: 4
inactive	–	7.15	Metabolite_Notdetected	> 41.7 days	inactive	Metabolite_Detected	7.96	7.35	inactive	20.8 min	–	CCCCCCCCCCCCCCCCCCOP(=O)(OCCCCCCCC)OP(=O)(O)OC[C@@H]1C=C[C@H](n2cc(C)c(=O)[nH]c2=O)O1.N (stereo partly specified)	46500 nM	–	–	4220	–	–	–	–	Drug metabolism [4]: Metabolite_Notdetected; Drug metabolism [5]: Metabolite_Notdetected
